Laboratory results taken from US11879145B2, “Reagents and methods for replication, transcription, and translation in semi-synthetic organisms” (The Scripps Research Institute, priority 2019, dated 2024).
“And” between values parts separate entries of the source, which are not always exact repeats. Identical values can stand only once. “Also recorded” adds a separate entry of the source.

Legend:
sfGFP^151(AXC) gene = assay: UBP retention in the sfGFP gene by streptavidin gel shift assay (in vivo screen of dXTPs); assay type: cell-based, E. coli; settings: dTPT3TP 10 μM, strain YZ3
Method: (§1) These plasmids were used to transform E. coli expressing the nucleoside triphosphate transporter PtNTT2 (strain YZ38) and harboring a plasmid encoding Mb PylRS. After transformation, colonies were selected and grown to an OD600˜1.0 in liquid media supplemented with dTPT3TP (10 μM) and one of seven different dXTPs (FIG. 2) added at varying concentrations (150 μM, 10 μM, or 5 μM). Cells were then diluted into fresh expression media containing the same unnatural deoxyribonucleotides as well as NaMTP (250 μM), TPT3TP (30 μM), and AzK (10 mM). After a brief incubation, T7 RNAP and tRNAPyl(GYT) expression was induced by the addition of isopropyl-β-d-thiogalactoside (IPTG, 1 mM). After an additional 1 h of incubation, the expression of sfGFP^151(AXC) was initiated by the addition of anhydrotetracycline (aTc, 100 ng/mL).
(§2) Analysis of PCR products. After 2.5 h, plasmids were isolated and then the genes of interest were independently PCR amplified using d5SICSTP and a biotinylated analog of dNaMTP7. The resulting PCR product was analyzed via a gel mobility shift assay using streptavidin to quantify the UBP retained as a percent shift of the total amplified product (hereafter referred to as the streptavidin gel shift assay) (FIG. 3A and FIG. 3B).
In vivo Translation Screen of dXTPs. An overnight culture of the SSO strain YZ3 carrying the pGEX-MbPylRS TetR plasmid was grown in 2×YT supplemented with 50 mM potassium phosphate, […] chloramphenicol and 100 μg/mL carbenicillin (herein referred to in this section as “media”), then diluted back to an OD600 of 0.03 in the same media and grown to an OD600 of 0.4 to 0.6. The culture was then chilled with shaking over ice-water for 15 minutes then pelleted by centrifugation at 3,200×g for 10 min. Cells were then resuspended and washed with ice-cold ddH2O twice then resuspended in ice-cold ddH2O to an OD600 of 55-65. The electrocompetent cells (50 μL) and 1 ng of Golden Gate assembled plasmid with the UBP within the sfGFP and tRNAPyl genes (see Golden Gate Assembly of Plasmids) were transferred to a pre-chilled electroporation cuvette (0.2-cm-gap), then electroporated (Gene Pulser II; Bio-Rad) according to manufacturer's recommendations (voltage […], capacitor 2.5 μF, resistor 200Ω), and then immediately diluted with 950 μL of media. An aliquot (40 μL) of the transformation was then diluted five-fold in media supplemented with dNaMTP (150 μM) and dTPT3TP (10 μM) for a final volume of 200 μL then allowed to recover for 1 h shaking at 37° C. […] The culture was monitored for cell growth (Envision 2103 Multilabel Plate Reader with a 590/20 nm filter) and then collected at an OD600˜1.0. […]

tRNA^Pyl(GYT) gene = assay: UBP retention in the tRNA gene by streptavidin gel shift assay (in vivo screen of dXTPs); assay type: cell-based, E. coli; settings: dTPT3TP 10 μM, strain YZ3
Method: as §1, §2
In vivo Translation Screen of dXTPs. An overnight culture of the SSO strain YZ3 carrying the pGEX-MbPylRS TetR plasmid was grown in 2×YT supplemented with 50 mM potassium phosphate, […] chloramphenicol and 100 μg/mL carbenicillin (herein referred to in this section as “media”), then diluted back to an OD600 of 0.03 in the same media and grown to an OD600 of 0.4 to 0.6. The culture was then chilled with shaking over ice-water for 15 minutes then pelleted by centrifugation at 3,200×g for 10 min. Cells were then resuspended and washed with ice-cold ddH2O twice then resuspended in ice-cold ddH2O to an OD600 of 55-65. […] The culture was monitored for cell growth (Envision 2103 Multilabel Plate Reader with a 590/20 nm filter) and then collected at an OD600˜1.0. […]

sfGFP^151(AXC) [1] = assay: Bulk culture sfGFP fluorescence normalized to cell growth (in vivo screen of dXTPs); assay type: cell-based, E. coli; settings: for sfGFP fluorescence normalized to cell growth: AzK added
Method: as §1
Analysis of reporter protein production. To characterize the amount of protein produced, bulk culture fluorescence normalized to cell growth was measured 2.5 h after the induction of protein expression (FIG. 3C). […] Cells growth was not observed when provided with only 5 μM dNaMTP. While similar at high concentrations, at lower concentrations the use of each dXTP analog results in a greater AzK-dependent increase in fluorescence than does the use of dNaMTP.
Ten-fold dilutions of the glycerol stock were re-plated onto solid growth media supplemented with dNaMTP (150 μM), dTPT3TP (10 μM), and 2% w/v agar, then grown at 37° C. overnight. Single colonies were picked and grown in growth media (300 μL) supplemented with corresponding dXTP (various concentrations), and dTPT3TP (10 μM), then monitored for cell growth and collected at an OD600˜1.0. Once all samples were collected, samples were left on ice overnight. The samples were then re-diluted to OD600˜0.1, to a final volume of 300 μL and provided with the corresponding dXTP (various concentrations), and dTPT3TP (10 μM). […] From this point on, cells were monitored for growth and fluorescence. […]

sfGFP^151(AXC) [2] = assay: Fidelity of AzK incorporation into sfGFP, DBCO-TAMRA gel shift / western blot (in vivo screen of dXTPs); assay type: cell-based, E. coli
Method: Analysis of reporter protein fidelity. To directly assess the fidelity of unnatural protein production, cells were harvested 2.5 h after the induction of protein expression and the sfGFP produced was purified and subjected to a strain-promoted azide-alkyne cycloaddition reaction with dibenzocyclooctyne (DBCO) linked to a TAMRA dye by four PEG units. In addition to tagging the proteins containing the ncAA with a detectable fluorophore, conjugation produces a shift in electrophoretic migration, allowing quantification of protein containing AzK as a percentage of the total protein produced (i.e. fidelity of ncAA incorporation; FIG. 3D).
Ten-fold dilutions of the glycerol stock were re-plated onto solid growth media supplemented with dNaMTP (150 μM), dTPT3TP (10 μM), and 2% w/v agar, then grown at 37° C. overnight. Single colonies were picked and grown in growth media (300 μL) supplemented with corresponding dXTP (various concentrations), and dTPT3TP (10 μM), then monitored for cell growth and collected at an OD600˜1.0. Once all samples were collected, samples were left on ice overnight. The samples were then re-diluted to OD600˜0.1, to a final volume of 300 μL and provided with the corresponding dXTP (various concentrations), and dTPT3TP (10 μM). The remaining culture not used was pelleted and stored at −80° C. for subsequent plasmid isolation using the ZR Plasmid Prep Kit (Zymo Research) to determine UBP retention. When cultures reached an OD600˜0.4-0.6, they were provided with NaMTP (250 μM) and TPT3TP (30 μM), and AzK (10 mM) (or ddH2O for cultures grown in the absence of AzK). Samples were shielded from light after addition of AzK to prevent photodegradation. These samples were then grown at 37° C. for 20 min before adding 1 mM IPTG and grown at 37° C. for an additional 1 h to induce T7 RNAP and transcription of tRNAPyl and PylRS. From this point on, cells were monitored for growth and fluorescence. Expression of sfGFP was then induced with anhydrotetracycline (100 ng/mL).
Affinity Purification of sfGFP. Cell pellets collected from translation experiments were resuspended in BugBuster (100 μL 1×, EMD Millipore) and shaken at room temperature for 15 min. The cell lysate was then diluted with Buffer W (380 μL; 50 mM HEPES pH 8, 150 mM NaCl, 1 mM EDTA) and magnetic Strep-Tactin beads (20 μL, 5% (v/v) suspension of MagStrep ‘type3’ XT beads, IBA Lifesciences) equilibrated in Buffer W, were added. The mixture was gently inverted at 4° C. for 30 min. […] Purified proteins were quantified using the Qubit Protein Assay Kit (Thermo Fisher Scientific). […]

E. coli strain YZ3 = assay: Cell growth / viability in the in vivo screen of dXTPs; assay type: cell-based; settings: dXTP 5 μM
Method: as §1, with “After an additional 1 h of incubation, the expression of sfGFP^151(AXC) was initiated by the addition of anhydrotetracycline (aTc, 100 ng/mL).” left out
Analysis of reporter protein production. To characterize the amount of protein produced, bulk culture fluorescence normalized to cell growth was measured 2.5 h after the induction of protein expression (FIG. 3C). […] While similar at high concentrations, at lower concentrations the use of each dXTP analog results in a greater AzK-dependent increase in fluorescence than does the use of dNaMTP.
Ten-fold dilutions of the glycerol stock were re-plated onto solid growth media supplemented with dNaMTP (150 μM), dTPT3TP (10 μM), and 2% w/v agar, then grown at 37° C. overnight. […] From this point on, cells were monitored for growth and fluorescence. […]

[3] = dXTP 5 μM (lowest concentration)

COc1cc2ccccc2cc1[C@H]1C[C@H](O)[C@@H](COP(=O)(O)OP(=O)(O)OP(=O)(O)O)O1 [dNaMTP]
UBP retention in the sfGFP^151(AXC) gene (sfGFP^151(AXC) gene; dXTP 10 μM): 73%
UBP retention in the sfGFP^151(AXC) gene (sfGFP^151(AXC) gene; dXTP 150 μM): 99%
UBP retention in the tRNA^Pyl(GYT) gene (tRNA^Pyl(GYT) gene; dXTP 10 μM): 71%
sfGFP fluorescence normalized to cell growth (sfGFP^151(AXC) [1]; dXTP 150 or 10 μM): significantly less fluorescence at 10 μM than at 150 μM
Fidelity of ncAA incorporation (protein shift) (sfGFP^151(AXC) [2]; dXTP 10 μM): dropped precipitously
Cell growth / survival (E. coli strain YZ3): not observed; also recorded: did not survive

COc1cc(C)c(F)cc1[C@H]1C[C@H](O)[C@@H](COP(=O)(O)OP(=O)(O)OP(=O)(O)O)O1 [d5FMTP]
UBP retention in the sfGFP^151(AXC) gene (sfGFP^151(AXC) gene; [3]): 94% and ~93%
UBP retention in the sfGFP^151(AXC) gene (sfGFP^151(AXC) gene; dXTP 10 μM): 96%
UBP retention in the tRNA^Pyl(GYT) gene (tRNA^Pyl(GYT) gene; [3]): 83%
UBP retention in the tRNA^Pyl(GYT) gene (tRNA^Pyl(GYT) gene; dXTP 10 μM): 82%
sfGFP fluorescence normalized to cell growth (sfGFP^151(AXC) [1]; dXTP 5 μM): remained the same
AzK-dependent increase in fluorescence (sfGFP^151(AXC) [1]; lower dXTP concentrations, compared with dNaMTP): largest AzK-dependent increase in fluorescence
Fidelity of ncAA incorporation (protein shift) (sfGFP^151(AXC) [2]; dXTP 5 μM): remained similar to that observed at 10 μM
Fidelity of ncAA incorporation (protein shift) (sfGFP^151(AXC) [2]; dXTP 10 μM): remained high
Quantity of pure unnatural protein produced (sfGFP^151(AXC) [2]; especially at lower concentrations): greatest quantity of pure unnatural protein
